The values that follow are results of earlier work, collected in patent publication US20010014685A1, “Injectable pharmaceutical composition for treatment and reversal of erectile dysfunction” (USA DOCTORS PRODUCTS, INC., priority 1998, published 2001).

Molecules are shown by their SMILES. Where only a bound is given, the exact number is not on record here.

In this series the test system is erectile dysfunction. The conditions noted are these: injectable products including only prostaglandin-E1 / existing preparations.

On to `CCCCC[C@H](O)/C=C/[C@H]1[C@H](O)CC(=O)[C@@H]1CCCCCCC(=O)O` [prostaglandin-E1], for which the “efficacy for treatment of erectile dysfunction” value is listed as at most 50%.
